Like-named read-outs stand apart in the source and are kept apart here.
Tests used:
Assay type in all cases: cell-based
OCI-AML2 = experiment: Cell viability, additional cell lines (CellTiter-Glo), OCI-AML2; settings: Homo sapiens, OCI-AML2, 72 h; read-out: Absolute IC50
Description: (§1) Tumor cells are grown at 37° C. in a humidified atmosphere with 5% CO2 in RPMI 1640 medium, supplemented with 10% (v/v) fetal calf serum and 50 μg/ml gentamicin for up to 20 passages, and are passaged once or twice weekly.
(§2) Cells are harvested from exponential phase cultures, counted and plated in 96 well flat-bottom microtiter plates at a cell density depending on the cell line's growth rate (4,000-20,000 cells/well depending on the cell line's growth rate, up to 60,000 for hematological cancer cell lines) in RPMI 1640 medium supplemented with 10% (v/v) fetal calf serum and 50 μg/ml gentamicin (140 μl/well). Cultures are incubated at 37° C. and 5% CO2 in a humidified atmosphere. After 24 h, 10 μl of test compounds or control medium are added and left on the cells for another 72 h. Compounds are serially diluted in DMSO, transferred in cell culture medium, and added to the assay plates by using a Tecan Freedom EVO 200 robotic platform. The DMSO concentration is kept constant at 0.3% v/v across the assay plate. Viability of cells is quantified by the CellTiter-Glo® cell viability assay (Promega G8462). After incubation of cells, 100 μl of CellTiter-Glo® One Solution Assay reagent are added to each well. Plates are shaken for 2 minutes to induce cell lysis and incubated for 20 minutes prior to reading luminescence (LU) by using the EnVision® Xcite multilabel plate reader (Perkin Elmer). […]

U-266 = experiment: Cell viability, additional cell lines (CellTiter-Glo), U-266; settings: Homo sapiens, U-266, 72 h; read-out: Absolute IC50
Description: as §1, §2

Ikaros (IKZF1) = target: T1, Ikaros (IKZF1) (Homo sapiens, UniProt Q13422+Q96SW2); experiment: Ikaros degradation assay, H929 cell line; settings: NCI-H929, H929 cells, 10 uM, 24 h, read-out: % of IKZF1 protein reduction
T1 construct: Ikaros degradation in the H929 cell line was investigated; endogenous in cells; host or cells: H929
T1 sequence (Q13422 whole entry): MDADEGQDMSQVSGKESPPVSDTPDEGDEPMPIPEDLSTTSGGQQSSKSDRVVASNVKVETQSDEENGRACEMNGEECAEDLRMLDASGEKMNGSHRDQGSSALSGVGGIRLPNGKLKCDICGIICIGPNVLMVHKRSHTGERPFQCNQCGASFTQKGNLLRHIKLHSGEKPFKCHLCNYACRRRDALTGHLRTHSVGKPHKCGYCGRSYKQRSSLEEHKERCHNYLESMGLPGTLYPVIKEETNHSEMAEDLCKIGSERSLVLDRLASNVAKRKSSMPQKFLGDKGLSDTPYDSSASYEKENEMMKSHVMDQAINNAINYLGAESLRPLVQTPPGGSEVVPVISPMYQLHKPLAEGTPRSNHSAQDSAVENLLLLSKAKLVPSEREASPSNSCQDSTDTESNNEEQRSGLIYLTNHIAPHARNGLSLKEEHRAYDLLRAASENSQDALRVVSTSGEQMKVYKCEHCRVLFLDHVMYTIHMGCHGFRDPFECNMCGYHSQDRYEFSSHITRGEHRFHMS
T1 sequence (Q96SW2 whole entry): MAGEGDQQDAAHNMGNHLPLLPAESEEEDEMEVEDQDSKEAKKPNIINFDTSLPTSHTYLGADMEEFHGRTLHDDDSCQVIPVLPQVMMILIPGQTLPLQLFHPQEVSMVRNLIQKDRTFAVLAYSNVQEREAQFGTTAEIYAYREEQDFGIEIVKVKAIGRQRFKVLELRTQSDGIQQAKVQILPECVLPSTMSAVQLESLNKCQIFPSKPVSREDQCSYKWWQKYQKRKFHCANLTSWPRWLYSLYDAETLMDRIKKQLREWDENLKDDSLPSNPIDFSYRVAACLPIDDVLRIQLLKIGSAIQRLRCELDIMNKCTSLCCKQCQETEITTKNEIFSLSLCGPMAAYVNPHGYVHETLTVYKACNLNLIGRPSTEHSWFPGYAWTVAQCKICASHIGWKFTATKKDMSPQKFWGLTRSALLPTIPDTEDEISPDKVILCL
T1 sequence (Q16531 whole entry partner): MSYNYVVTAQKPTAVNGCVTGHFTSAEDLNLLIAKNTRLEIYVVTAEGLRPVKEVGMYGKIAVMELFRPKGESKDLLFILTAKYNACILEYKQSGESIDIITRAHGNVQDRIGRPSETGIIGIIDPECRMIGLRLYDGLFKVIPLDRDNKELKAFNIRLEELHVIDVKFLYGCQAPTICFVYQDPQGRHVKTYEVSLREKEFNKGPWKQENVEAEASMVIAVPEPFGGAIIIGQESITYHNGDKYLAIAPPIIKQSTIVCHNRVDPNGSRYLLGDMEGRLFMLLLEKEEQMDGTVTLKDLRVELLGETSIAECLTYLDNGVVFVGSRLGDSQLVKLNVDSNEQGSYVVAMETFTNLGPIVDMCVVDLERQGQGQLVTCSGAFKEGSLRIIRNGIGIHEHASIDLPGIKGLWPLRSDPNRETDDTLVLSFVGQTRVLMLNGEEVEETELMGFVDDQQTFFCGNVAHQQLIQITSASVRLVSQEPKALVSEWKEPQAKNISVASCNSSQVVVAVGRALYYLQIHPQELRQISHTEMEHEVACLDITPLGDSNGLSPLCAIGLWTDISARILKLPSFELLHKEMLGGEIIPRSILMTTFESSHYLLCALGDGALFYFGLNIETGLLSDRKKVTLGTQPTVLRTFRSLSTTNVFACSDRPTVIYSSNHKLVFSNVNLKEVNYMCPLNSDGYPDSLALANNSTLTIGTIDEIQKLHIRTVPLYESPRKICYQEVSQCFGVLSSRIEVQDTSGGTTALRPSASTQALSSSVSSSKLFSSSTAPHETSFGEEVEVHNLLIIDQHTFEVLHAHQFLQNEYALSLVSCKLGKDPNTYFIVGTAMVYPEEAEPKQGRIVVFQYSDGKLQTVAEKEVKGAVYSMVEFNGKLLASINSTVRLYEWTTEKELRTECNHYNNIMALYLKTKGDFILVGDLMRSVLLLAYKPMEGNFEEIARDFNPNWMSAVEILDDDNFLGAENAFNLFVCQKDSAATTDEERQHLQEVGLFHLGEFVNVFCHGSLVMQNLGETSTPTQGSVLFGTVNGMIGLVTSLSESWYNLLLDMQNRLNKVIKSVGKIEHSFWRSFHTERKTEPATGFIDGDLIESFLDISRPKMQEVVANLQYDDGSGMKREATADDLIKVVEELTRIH
Description: (§3) Cells were seeded on 6- or 12-well plates, and the compounds to be tested were added at the desired concentration range. […] After 24 h incubation (37° C., 5% CO2), cells were harvested, washed and cell lysates were prepared using RIPA lysis buffer. The amount of protein was determined via BCA assay, and the appropriate quantity was then loaded on the precast gel for the protein separation. After primary and secondary Ab staining, the membranes were washed and signals developed. The densitometry analysis was implemented to obtain the numeric values used later in the protein level evaluation process.

H929 cells = experiment: Cell viability CTG assay, H929; design: key to Geomean absolute IC50 by molecule, 72 H: Inactive represents IC50 > 50 μM; C represents 50 μM ≥ IC50 > 5 μM; settings: H929, 72 h, 0.001-50 μM; for IC50: Homo sapiens, NCI-H929, numeric values, read-out: Geomean absolute IC50 by molecule, 72 H
Description: (§4) The effect of various compounds of the invention and various reference compounds on cell viability in various cell lines was investigated, using the Cell Viability—CTG Assay Protocol below. Hep3B, Kelly, H929, KG-1 and SNU-398 cells were maintained in respective cell medium (see Table 8, below). The cells were seeded on the 96-well or 384-white plates, and the compounds to be tested were added at the desired concentration range. Compounds are diluted in DMSO, and the DMSO concentration is kept constant at 0.25% v/v across the assay plate. After 72 h incubation (37° C., 5% CO2), CellTiter-Glo® Reagent (Promega/G7570) was added to the wells. Plates are shaken for 4 minutes and incubated for 8 minutes in the dark prior to reading luminescence (LU) by using the CLARIOstar Multimode Plate Reader. The signal is proportional to the amount of ATP, which is directly proportional to the number of cells present in the culture.
(§5) Luminescence (RLU) values were normalized to DMSO control. Dose response is assessed by non-linear regression and IC50 calculation with the average of technical duplicate of percentage inhibition. IC50 values are reported as absolute IC50 values, being the concentration of test compound at the intersection of the concentration-response curves with T/C=50%. For calculation of mean IC50 values the geometric mean is used.

TMD8 = experiment: Cell viability, additional cell lines (CellTiter-Glo), TMD8; settings: Homo sapiens, TMD8, 72 h; read-out: Absolute IC50
Description: as §1, §2

LP-1 = experiment: Cell viability, additional cell lines (CellTiter-Glo), LP-1; settings: Homo sapiens, LP-1, 72 h; read-out: Absolute IC50
Description: as §1, §2

NCI-H929 = experiment: Cell viability, additional cell lines (CellTiter-Glo), NCI-H929; settings: Homo sapiens, NCI-H929, 72 h; read-out: Absolute IC50
Description: as §1, §2

EOL-1 = experiment: Cell viability, additional cell lines (CellTiter-Glo), EOL-1; settings: Homo sapiens, EOL1; EOL-1, 72 h; read-out: Absolute IC50
Description: as §1, §2

IM-9 = experiment: Cell viability, additional cell lines (CellTiter-Glo), IM-9; settings: Homo sapiens, IM-9, 72 h; read-out: Absolute IC50
Description: as §1, §2

U-937 = experiment: Cell viability, additional cell lines (CellTiter-Glo), U-937; settings: Homo sapiens, U-937, 72 h; read-out: Absolute IC50
Description: as §1, §2

Kasumi-1 = experiment: Cell viability, additional cell lines (CellTiter-Glo), Kasumi-1; settings: Homo sapiens; Kasumi-1, 72 h; read-out: Absolute IC50
Description: as §1, §2

SNU-398 cells = experiment: Cell viability CTG assay, SNU-398; settings: Homo sapiens; SNU-398, 72 h, 0.001-50 μM, FIG. 6C
Description: as §4, §5

HL-60 = experiment: Cell viability, additional cell lines (CellTiter-Glo), HL-60; settings: Homo sapiens, HL-60, 72 h; read-out: Absolute IC50
Description: as §1, §2

OPM-2 = experiment: Cell viability, additional cell lines (CellTiter-Glo), OPM-2; settings: Homo sapiens, OPM-2, 72 h; read-out: Absolute IC50
Description: as §1, §2

PL-21 = experiment: Cell viability, additional cell lines (CellTiter-Glo), PL-21; settings: PL-21, 72 h; read-out: Absolute IC50
Description: as §1, §2

NOMO-1 = experiment: Cell viability, additional cell lines (CellTiter-Glo), NOMO-1; settings: Homo sapiens, NOMO-1, 72 h; read-out: Absolute IC50
Description: as §1, §2

SU-DHL-1 = experiment: Cell viability, additional cell lines (CellTiter-Glo), SU-DHL-1; settings: Homo sapiens, SU-DHL-1, 72 h; read-out: Absolute IC50
Description: as §1, §2

Kelly cells [1] = experiment: Cell viability CTG assay, Kelly; settings: 72 h, 0.001-50 μM, read-out: Kelly Geomean absolute IC50 by molecule, 72 H
Description: as §4, §5

GSPT1 = target: T2, GSPT1 (Homo sapiens, UniProt P15170+Q96SW2); experiment: GSPT1 degradation assay, Hep3B cell line; settings: HEP3B cells, 24 h, read-out: % of GSPT1 protein reduction
T2 construct: GSPT1 degradation in the Hep3B cell line was investigated; endogenous in cells; host or cells: Hep3B
T2 sequence (P15170 whole entry): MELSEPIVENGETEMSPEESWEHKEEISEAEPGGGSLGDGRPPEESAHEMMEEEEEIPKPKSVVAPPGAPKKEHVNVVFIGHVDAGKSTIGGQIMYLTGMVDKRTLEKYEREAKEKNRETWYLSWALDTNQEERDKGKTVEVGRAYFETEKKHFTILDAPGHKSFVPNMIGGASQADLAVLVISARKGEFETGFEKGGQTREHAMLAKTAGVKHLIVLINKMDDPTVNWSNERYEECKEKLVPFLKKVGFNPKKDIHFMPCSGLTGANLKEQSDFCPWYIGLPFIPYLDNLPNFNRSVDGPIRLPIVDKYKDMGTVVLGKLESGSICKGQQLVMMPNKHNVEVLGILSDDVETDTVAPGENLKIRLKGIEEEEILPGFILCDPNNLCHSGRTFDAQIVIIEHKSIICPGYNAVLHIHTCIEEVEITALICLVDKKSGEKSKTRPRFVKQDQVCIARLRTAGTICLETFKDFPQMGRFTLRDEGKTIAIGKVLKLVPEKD
T2 sequence (Q96SW2 whole entry): as the sequence (Q96SW2 whole entry) above
T2 sequence (Q16531 whole entry partner): as the sequence (Q16531 whole entry partner) above
Description: (§6) Hep3B cells were maintained in EMEM medium, supplemented with penicillin/streptomycin and 10% Fetal Bovine Serum (FBS). Cells were seeded on 6- or 12-well plates, and the compounds to be tested were added at the desired concentration range. Final DMSO concentration was 0.25%. After 24 h incubation (37° C., 5% CO2), cells were harvested, washed and cell lysates were prepared using RIPA lysis buffer. The amount of protein was determined via BCA assay, and the appropriate quantity was then loaded on the precast gel for the protein separation. After primary and secondary Ab staining, the membranes were washed and signals developed. The densitometry analysis was implemented to obtain the numeric values used later in the protein level evaluation process. Densitometry values were normalized to the loading control and calculated as [%] of the DMSO control.

Hep3B cells [2] = experiment: Cell viability CTG assay, Hep3B; settings: Homo sapiens, 72 h, 0.001-50 μM, read-out: Hep3B Geomean absolute IC50 by molecule, 72 H
Description: as §4, §5

KG-1 cells = experiment: Cell viability CTG assay, KG-1; settings: Homo sapiens; KG-1, 72 h, 0.001-50 μM; read-out: KG-1 Geomean absolute IC50 by molecule, 72 H
Description: as §4, §5

SALL4 [3] = target: T3, SALL4 (Homo sapiens, UniProt Q96SW2+Q9UJQ4); experiment: SALL4 degradation in the Kelly cell line, time course; settings: Kelly cells, 0.1 μM, 3, 6, 12, 24, 48 and 72 h, FIG. 2
T3 construct: SALL4 degradation in the Kelly cell line was investigated; endogenous in cells; host or cells: Kelly
T3 sequence (Q9UJQ4 whole entry): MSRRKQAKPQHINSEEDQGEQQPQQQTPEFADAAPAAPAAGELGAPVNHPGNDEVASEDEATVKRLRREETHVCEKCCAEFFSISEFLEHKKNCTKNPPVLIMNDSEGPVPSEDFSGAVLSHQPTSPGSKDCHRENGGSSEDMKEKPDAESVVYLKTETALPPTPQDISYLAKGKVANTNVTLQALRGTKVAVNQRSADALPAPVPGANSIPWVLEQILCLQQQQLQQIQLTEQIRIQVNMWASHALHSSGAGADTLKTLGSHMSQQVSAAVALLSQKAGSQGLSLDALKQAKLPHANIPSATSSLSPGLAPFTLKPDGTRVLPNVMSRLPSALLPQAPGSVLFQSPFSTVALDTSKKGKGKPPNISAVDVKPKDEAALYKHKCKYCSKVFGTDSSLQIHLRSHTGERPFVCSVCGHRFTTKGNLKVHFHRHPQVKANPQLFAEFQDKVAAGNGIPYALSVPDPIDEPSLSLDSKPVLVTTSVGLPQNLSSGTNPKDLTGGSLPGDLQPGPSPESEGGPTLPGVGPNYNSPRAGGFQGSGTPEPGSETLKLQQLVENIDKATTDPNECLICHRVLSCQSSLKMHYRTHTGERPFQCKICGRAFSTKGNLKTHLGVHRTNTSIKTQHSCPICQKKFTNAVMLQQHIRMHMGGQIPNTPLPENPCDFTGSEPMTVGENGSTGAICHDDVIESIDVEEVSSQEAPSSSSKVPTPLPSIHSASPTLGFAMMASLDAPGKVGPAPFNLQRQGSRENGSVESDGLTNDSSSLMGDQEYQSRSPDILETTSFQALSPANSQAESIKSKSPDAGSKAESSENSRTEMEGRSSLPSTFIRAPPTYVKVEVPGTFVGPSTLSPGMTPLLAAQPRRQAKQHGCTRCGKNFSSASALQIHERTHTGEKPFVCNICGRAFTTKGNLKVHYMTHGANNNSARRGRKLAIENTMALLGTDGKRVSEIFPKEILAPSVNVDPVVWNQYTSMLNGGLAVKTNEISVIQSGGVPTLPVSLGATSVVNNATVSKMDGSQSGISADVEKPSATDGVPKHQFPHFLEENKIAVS
T3 sequence (Q96SW2 whole entry): as the sequence (Q96SW2 whole entry) above
T3 sequence (Q16531 whole entry partner): as the sequence (Q16531 whole entry partner) above
Description: as §6, with “Kelly” for “Hep3B”, “RPMI-1640” for “EMEM”, “After” for “After 24 h”, “CO2) for a specified period of time,” for “CO2),”, “process.” for “process. Densitometry values were normalized to the loading control and calculated as [%] of the DMSO control.”

SALL4 [4] = target: T3, SALL4; experiment: SALL4 degradation assay, Kelly cell line (Western blot densitometry); settings: Kelly cells, 100 nM, 24 h, average from n ≥ 2 experiments
Description: as §3

Hep3B cells [5] = experiment: Cell survival clonogenic assay, Hep3B; settings: 0.1-10 μM, crystal violet staining after 9-10 days
Description: (§7) To determine the ability of a single cell to form a colony (defined as a cluster of at least 50 cells), Kelly and Hep3B cells were maintained in RPM11640 (Kelly) or EMEM (Hep3B) medium, supplemented with penicillin/streptomycin and 10% FBS. The cells were counted and seeded on the 6-well plates, at the density of 1×10^3 cells per well, the compounds to be tested were added at the desired concentration range, and the cells were cultured at 37° C./5% CO2. After colony formation (9-10 days), the cells were washed and treated with 6.0% glutaraldehyde and 0.5% crystal violet mix for 30 min., followed by rinsing with water and drying at room temperature (RT).

Kelly cells [6] = experiment: Cell survival clonogenic assay, Kelly; settings: 0.1-10 μM, crystal violet staining after 9-10 days
Description: as §7

Q: What does the source list for `O=C1CCC(N2Cc3cc(CNC(=O)C(F)(F)c4ccc(Cl)cc4)ccc3C2=O)C(=O)N1` (stereo not shown) [CC-90009, reference compound]?
A: IC50 (OCI-AML2): 18 nM; IC50 (U-266): 56 nM; inhibition at 10 µM (Ikaros (IKZF1); numeric values): 33%; IC50 (H929 cells): 189 nM; IC50 (TMD8): 264 nM; IC50 (LP-1): 28 nM; IC50 (NCI-H929): 399 nM; IC50 (EOL-1): 2 nM; IC50 (IM-9): 85 nM; IC50 (U-937): 78 nM; IC50 (Kasumi-1): 35 nM; IC50 (SNU-398 cells): > 9900 nM; IC50 (HL-60): 3 nM; IC50 (OPM-2): 74 nM; IC50 (PL-21): 10 nM; IC50 (NOMO-1): 40 nM; IC50 (SU-DHL-1): 153 nM

Q: Which inhibition at 10 µM (Ikaros (IKZF1)) does the source give for `NCc1cc2c(cc1F)C(=O)N(C1CCC(=O)NC1=O)C2` (stereo not shown) [Compound 3, 3-[5-(aminomethyl)-6-fluoro-1-oxo-2,3-dihydro-1H-isoindol-2-yl]piperidine-2,6-dione] here?
A: Its inhibition at 10 µM is 0 to 24%.

Q: What about the “Geomean absolute IC50 by molecule, 72 H” value (H929 cells) of the same compound?
A: The value was “Inactive”.

Q: And the IC50 (Kelly cells [1])?
A: Its IC50 is ≤ 100 nM.

Q: What about the inhibition at 10 µM (GSPT1; 10 uM) of the same compound?
A: Its inhibition at 10 µM is 80 to 100%.

Q: And the IC50 (SNU-398 cells)?
A: The IC50 was 82 nM.

Q: And the IC50 (Hep3B cells [2])?
A: The IC50 was ≤ 100 nM.

Q: And the IC50 (KG-1 cells)?
A: Its IC50 is ≤ 100 nM.

Q: `Nc1c(O)ccc2c1C(=O)N(C1CCC(=O)NC1=O)C2=O` (stereo not shown) [Compound 44, 4-amino-2-(2,6-dioxopiperidin-3-yl)-5-hydroxyisoindoline-1,3-dione] was tested. Which inhibition at 10 µM (Ikaros (IKZF1)) did it give?
A: The inhibition at 10 µM was 0 to 24%.

Q: What about the inhibition at 1 µM (GSPT1; 1 uM) of the same compound?
A: Its inhibition at 1 µM is 50 to 79%.

Q: And the “SALL4 degradation time course” value (SALL4 [3])?
A: The value was “more rapidly and effectively than lenalidomide”.

Q: What about the “% of SALL4 protein reduction” value (SALL4 [4]) of the same compound?
A: Its value is >80%.

Q: `Nc1cccc2c1CN(C1CCC(=O)NC1=O)C2=O` (stereo not shown) [Lenalidomide, lenalidomide, reference compound] was tested. Which IC50 (H929 cells) did it give?
A: Its IC50 is 433 nM.

Q: And the “survival of the cells (colony formation)” value (Hep3B cells [5])?
A: Its value is “no activity”.

Q: What about the “survival of the cells (colony formation)” value (Kelly cells [6]) of the same compound?
A: The value was “no activity”.

Source: patent US20240294489A1 (Captor Therapeutics S.A., priority 2020, published 2024)
